# Results as given in patent US20100323989A1, “PHARMACEUTICAL COMBINATIONS USEFUL FOR TREATING HCV” (Gilead Sciences, Inc., priority 2009, published 2010).
# How the values were obtained:
# [1] = system: wild-type 1b Con-1 PI-Luc replicon; experiment: Transient transfection replicon assay, wild type; format: cell-based, HCV genotype 1b; details: Hepatitis C virus
# [2] = system: 1b Con-1 PI-Luc replicon with NS5B polymerase mutation Y448H; format: cell-based, HCV genotype 1b; details: ratio of mutant EC50 to wild type EC50, NS5B Y448H
# [3] = system: 1b Con-1 PI-Luc replicon with NS5B polymerase mutations C316Y/C445F/Y452H; format: cell-based, HCV genotype 1b; details: ratio of mutant EC50 to wild type EC50, NS5B C316Y/C445F/Y452H
# [4] = system: panel of protease inhibitor resistance-associated-mutations (NS3) in 1b PI-luc replicon; details: all NS3 protease mutants tested
# [5] = system: mutant 1b Con-1 PI-Luc replicons (major HCV NS5B polymerase inhibitor resistance mutations); experiment: Transient transfection replicon assay, panel of NS5B polymerase inhibitor resistance mutations; format: cell-based, HCV genotype 1b; details: against all NS5B mutations tested
# [6] = Multiple-dose pharmacokinetic interaction study in healthy subjects (Example 5); format: in vivo, human
# Description: Serial blood samples for analysis of plasma concentrations of Compound 2 were collected up to 120 hours after the morning dose on Days 7 and 21 to determine systemic drug exposure. Glossary of Abbreviations and Definitions of Terms Used in Example 5 • AUCtau The area under the concentration versus time curve over the dosing interval • AUC0-last Area under the concentration versus time curve from time zero to the last quantifiable concentration • AUCinf Area under the concentration versus time curve extrapolated to infinite time, calculated as AUC0-last+(Clast/λz) • BID twice daily • CI confidence interval • Cmax The maximum observed concentration of drug in plasma • Ctau The observed drug concentration at the end of the dosing interval • CV coefficient of variation
# [7] = Table 4 (NS3 protease mutation study)
# [8] = Compound 1 (40 mg BID) + Compound 2 (75 mg BID) / Compound 2 alone
# [9] = coadministration of Compound 1 (40 mg BID) with Compound 2 (75 mg BID) vs Compound 2 alone
SMILES,EC50 ([1]; Table 3 (NS5B mutation study)) [nM],"EC50 [1, 7] [nM]",Fold Resistance Y448H [2] [fold],Fold Resistance C316Y/C445F/Y452H [3] [fold],fold change in EC50 values from wild-type [4] [fold],fold change in EC50 values from wild-type [5] [fold],"Compound 2 AUCtau, % Geometric Least Square Mean Ratio (90% CI) [6, 8]","Compound 2 Cmax, % Geometric Least Square Mean Ratio (90% CI) [6, 8]","Compound 2 Ctau, % Geometric Least Square Mean Ratio (90% CI) [6, 8]","decrease in AUCtau of Compound 2 [6, 9] [%]","decrease in Cmax of Compound 2 [6, 9] [%]","decrease in Ctau of Compound 2 [6, 9] [%]","AUC ([6]; plasma, human, oral, Compound 2 (75 mg BID) alone, Day 7, read-out: Compound 2 AUCtau, Mean (% CV)) [ng·h/mL]"
"Fc1ccccc1-c1nc2ccn(Cc3ccc(-c4ccc(C(F)(F)F)cc4C(F)(F)F)nn3)cc-2n1 [Compound 1, 5-({6-[2,4-bis(trifluoromethyl)phenyl]pyridazin-3-yl}methyl)-2-(2-fluorophenyl)-5H-imidazo[4,5-c]pyridine]",1.5,0.79,38.0,>343,≤ 1.2,,,,,,,,
COc1ccc2c(O[C@@H]3C[C@H]4C(=O)N[C@]5(P(=O)(O)Cc6c(F)cccc6F)C[C@H]5CCCCCCC[C@H](NC(=O)OC5CCCC5)C(=O)N4C3)cc(-c3csc(NC(C)C)n3)nc2c1Cl [Compound 2],50.7,21.4,1.0,2.1,,≤ 2.1,"75.9 (62.0, 93.0) %","80.0 (66.7, 95.6) %","70.0 (55.9, 87.5) %",24,20,30,35300
